From patent US8334382B2, “Substituted biaryl piperazinyl-pyridine analogues” (Neurogen Corporation, priority 2004, dated 2012)

biological target: T1, human capsaicin receptor (Homo sapiens, UniProt Q8NER1); test: Calcium mobilization assay, determination of antagonist activity; assay type: cell-based; conditions: capsaicin at EC50; cells expressing human capsaicin receptor; Example 6
T1 construct: expressed in transfected cells; host or cells: HEK293, stably transfected with pBK-CMV construct
Procedure: A cDNA encoding full length human capsaicin receptor (SEQ ID NO:1, 2 or 3 of U.S. Pat. No. 6,482,611) is subcloned in the plasmid pBK-CMV (Stratagene, La Jolla, Calif.) for recombinant expression in mammalian cells.
Human embryonic kidney (HEK293) cells are transfected with the pBK-CMV expression construct encoding the full length human capsaicin receptor using standard methods. The transfected cells are selected for two weeks in media containing G418 (400 μg/ml) to obtain a pool of stably transfected cells. Independent clones are isolated from this pool by limiting dilution to obtain clonal stable cell lines for use in subsequent experiments.
Cells transfected with expression plasmids (as described in Example 4) and thereby expressing human capsaicin receptor are seeded and grown to 70-90% confluency in FALCON black-walled, clear-bottomed 96-well plates (#3904, BECTON-DICKINSON, Franklin Lakes, N.J.). The culture medium is emptied from the 96 well plates and FLUO-3 AM calcium sensitive dye (Molecular Probes, Eugene, Oreg.) is added to each well (dye solution: 1 mg FLUO-3 AM, 440 μL DMSO and 440 μl 20% pluronic acid in DMSO, diluted 1:250 in Krebs-Ringer HEPES (KRH) buffer (25 mM HEPES, 5 mM KCl, 0.96 mM NaH2PO4, 1 mM MgSO4, 2 mM CaCl2, 5 mM glucose, 1 mM probenecid, pH 7.4), 50 μl diluted solution per well). Plates are covered with aluminum foil and incubated at 37° C. for 1-2 h in an environment containing 5% CO2. After the incubation, the dye is emptied from the plates, and the cells are washed once with KRH buffer, and resuspended in KRH buffer.
To measure the ability of a test compound to agonize or antagonize a calcium mobilization response in cells expressing capsaicin receptors to capsaicin or other vanilloid agonist, the EC50 of the agonist capsaicin is first determined. An additional 20 μl of KRH buffer and 1 μl DMSO is added to each well of cells, prepared as described above. 100 μl capsaicin in KRH buffer is automatically transferred by the FLIPR instrument to each well. Capsaicin-induced calcium mobilization is monitored using either FLUOROSKAN ASCENT (Labsystems; Franklin, Mass.) or FLIPR (fluorometric imaging plate reader system; Molecular Devices, Sunnyvale, Calif.) instruments. Data obtained between 30 and 60 seconds after agonist application are used to generate an 8-point concentration response curve, with final capsaicin concentrations of 1 nM to 3 μM. KALEIDAGRAPH software (Synergy Software, Reading, Pa.) is used to fit the data to the equation: y=a*(1/(1+(b/x)^c)) to determine the 50% excitatory concentration (EC50) for the response. In this equation, y is the maximum fluorescence signal, x is the concentration of the agonist or antagonist (in this case, capsaicin), a is the Emax, b corresponds to the EC50 value and c is the Hill coefficient. Determination of Agonist Activity
Test compounds are dissolved in DMSO, diluted in 20 μl KRH buffer so that the final concentration of test compounds in the assay well is between 1 μM and 5 μM, and added to cells prepared as described above. The 96 well plates containing prepared cells and test compounds are incubated in the dark, at room temperature for 0.5 to 6 h. It is important that the incubation not continue beyond 6 h. Just prior to determining the fluorescence response, 100 μl capsaicin in KRH buffer at twice the EC50 concentration determined as described above is automatically added by the FLIPR instrument to each well of the 96 well plate for a final sample volume of 200 μl and a final capsaicin concentration equal to the EC50. The final concentration of test compounds in the assay wells is between 1 μM and 5 μM. […] The concentration of antagonist required to provide a 50% decrease, relative to the response observed in the presence of capsaicin and without antagonist, is the IC50 for the antagonist, and is preferably below 1 micromolar, 100 nanomolar, 10 nanomolar or 1 nanomolar.

T1 sequence (Q8NER1 whole entry): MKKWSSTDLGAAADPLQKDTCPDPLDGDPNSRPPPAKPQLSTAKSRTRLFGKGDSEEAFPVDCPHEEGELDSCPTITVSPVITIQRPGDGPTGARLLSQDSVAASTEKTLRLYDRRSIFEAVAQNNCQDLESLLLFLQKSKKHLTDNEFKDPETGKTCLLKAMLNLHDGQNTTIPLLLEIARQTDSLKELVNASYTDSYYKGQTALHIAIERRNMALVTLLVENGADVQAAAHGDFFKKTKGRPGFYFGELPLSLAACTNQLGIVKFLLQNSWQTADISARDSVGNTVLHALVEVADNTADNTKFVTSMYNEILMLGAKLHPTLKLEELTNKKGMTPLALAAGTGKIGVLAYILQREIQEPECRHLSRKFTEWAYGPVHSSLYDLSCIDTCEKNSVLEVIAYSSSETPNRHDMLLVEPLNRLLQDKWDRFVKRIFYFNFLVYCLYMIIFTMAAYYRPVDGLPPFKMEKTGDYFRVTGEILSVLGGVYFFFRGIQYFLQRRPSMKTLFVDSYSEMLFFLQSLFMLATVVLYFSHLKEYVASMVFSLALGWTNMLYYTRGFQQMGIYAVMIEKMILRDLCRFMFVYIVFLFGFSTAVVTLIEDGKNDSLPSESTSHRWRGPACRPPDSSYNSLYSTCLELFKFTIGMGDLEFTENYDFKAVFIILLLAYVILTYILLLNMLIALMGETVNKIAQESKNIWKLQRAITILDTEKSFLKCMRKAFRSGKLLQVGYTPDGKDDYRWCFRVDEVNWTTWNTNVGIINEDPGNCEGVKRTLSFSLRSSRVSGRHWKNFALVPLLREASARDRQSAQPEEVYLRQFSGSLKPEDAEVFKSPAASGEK

IC50 [nM]	SMILES
≤ 1000	Cc1cc(CC(=O)OC(C)(C)C)cnc1N1CCN(c2cc(-c3ccc(F)cc3)nc(N3CCC[C@H]3C)n2)[C@H](C)C1 (relative stereo) [Example 190, tert-butyl rel-{6-[(3R)-4-{6-(4-fluorophenyl)-2-[(2R)-2-methylpyrrolidin-1-yl]pyrimidin-4-yl}-3-methylpiperazin-1-yl]-5-methylpyridin-3-yl}acetate]
≤ 1000	C[C@@H]1CN(c2ncc(/C=C/CO)cc2Cl)CCN1c1cc(-c2ccc(F)c(Cl)c2)nc(N2CCC[C@H]2C)n1 (relative stereo) [Example 191, rel-(2E)-3-{5-chloro-6-[(3R)-4-{6-(3-chloro-4-fluorophenyl)-2-[(2R)-2-methylpyrrolidin-1-yl]pyrimidin-4-yl}-3-methylpiperazin-1-yl]pyridin-3-yl}prop-2-en-1-ol]
≤ 1000	Cc1cc(OCCO)cnc1N1CCN(c2cc(-c3ccc(F)cc3)nc(N3CCC[C@H]3C)n2)[C@H](C)C1 (relative stereo) [Example 192, rel-2-({6-[(3R)-4-{6-(4-fluorophenyl)-2-[(2R)-2-methylpyrrolidin-1-yl]pyrimidin-4-yl}-3-methylpiperazin-1-yl]-5-methylpyridin-3-yl}oxy)ethanol]
≤ 1000	C[C@@H]1CN(c2ncc(CCCO)cc2Cl)CCN1c1cc(-c2ccc(F)c(Cl)c2)nc(N2CCC[C@H]2C)n1 (relative stereo) [Example 193, rel-3-{5-chloro-6-[(3R)-4-{6-(3-chloro-4-fluorophenyl)-2-[(2R)-2-methylpyrrolidin-1-yl]pyrimidin-4-yl}-3-methylpiperazin-1-yl]pyridin-3-yl}propan-1-ol]
≤ 1000	CCOC(=O)c1cccnc1N1CCN(c2cc(-c3ccc(F)c(Cl)c3)nc(N3CCOCC3)n2)CC1 [Example 1, 2-{4-[6-(3-Chloro-4-fluoro-phenyl)-2-morpholin-4-yl-pyrimidin-4-yl]-piperazin-1-yl}-nicotinic acid ethyl ester]
≤ 1000	NC(=O)c1cccnc1N1CCN(c2cc(-c3ccc(F)c(Cl)c3)nc(N3CCOCC3)n2)CC1 [Example 2, 2-{4-[6-(3-Chloro-4-fluoro-phenyl)-2-morpholin-4-yl-pyrimidin-4-yl]-piperazin-l-yl}-nicotinamide]
≤ 1000	O=C(O)c1cccnc1N1CCN(c2cc(-c3ccc(F)c(Cl)c3)nc(N3CCOCC3)n2)CC1 [Example 3, 2-{4-[6-(3-Chloro-4-fluoro-phenyl)-2-morpholin-4-yl-pyrimidin-4-yl] - piperazin-1-yl}-nicotinic acid]
≤ 1000	O=[N+]([O-])c1cccnc1N1CCN(c2cc(-c3ccc(F)c(Cl)c3)nc(N3CCOCC3)n2)CC1 [Example 4, 4-{4-(3-Chloro-4-fluoro-phenyl)-6-[4-(3-nitro-pyridin-2-yl)-piperazin-1-yl]-pyrimidin-2-yl}-morpholine]
≤ 1000	Cc1cc([N+](=O)[O-])cnc1N1CCN(c2cc(-c3ccc(F)c(Cl)c3)nc(N3CCCC3C)n2)CC1 (stereo not drawn) [Example 5, 4-(3-Chloro-4-fluoro-phenyl)-6-[4-(3-methyl-5-nitro-pyridin-2-yl)-piperazin-1-yl]-2-(2-methyl-pyrrolidin-1-yl)-pyrimidine]
≤ 1000	Cc1cc(OCCN(C)C)cnc1N1CCN(c2cc(-c3ccc(F)c(Cl)c3)nc(N3CCCC3C)n2)CC1 (stereo not drawn) [Example 6, [2-(6-{4-[6-(3-Chloro-4-fluoro-phenyl)-2-(2-methyl-pyrrolidin-1-yl)-pyrimidin-4-yl]-piperazin-1-yl}-5-methyl-pyridin-3-yloxy)-ethyl]-dimethyl-amine]
≤ 1000	CC1CCCN1c1nc(-c2ccc(F)c(Cl)c2)cc(N2CCN(c3nccc(C(=O)O)c3Cl)CC2)n1 (stereo not drawn) [Example 7, 3-Chloro-2-{4-[6-(3-chloro-4-fluoro-phenyl)-2-(2-methyl-pyrrolidin-1-yl)-pyrimidin-4-yl]-piperazin-1-yl}-isonicotinic acid]
≤ 1000	COC(=O)c1cnc(N2CCN(c3cc(-c4ccc(F)c(Cl)c4)nc(N4CCCC4C)n3)[C@H](C)C2)c(Cl)c1 (stereo partly drawn) [Example 8, 5-Chloro-6-{4-[6-(3-chloro-4-fluoro-phenyl)-2-(2-methyl-pyrrolidin-1-yl)-pyrimidin-4-yl]-3-(R)-methyl-piperazin-1-yl}-nicotinic acid methyl ester]
≤ 1000	CC1CCCN1c1nc(-c2ccc(F)c(Cl)c2)cc(N2CCN(c3ncc(C(=O)O)cc3Cl)C[C@H]2C)n1 (stereo partly drawn) [Example 9, 5-Chloro-6-{4-[6-(3-chloro-4-fluoro-phenyl)-2-(2-methyl-pyrrolidin-1-yl)-pyrimidin-4-yl]-3-(R)-methyl-piperazin-l-yl}-nicotinic acid]
≤ 1000	CC1CCCN1c1nc(-c2ccc(F)c(Cl)c2)cc(N2CCN(c3ncc(CO)cc3Cl)CC2)n1 (stereo not drawn) [Example 10, (5-Chloro-6-{4-[6-(3-chloro-4-fluoro-phenyl)-2-(2-methyl-pyrrolidin-1-yl)-pyrimidin-4-yl]-piperazin-1-yl}-pyridin-3-yl)-methanol]
≤ 1000	CNCc1cnc(N2CCN(c3cc(-c4ccc(F)c(Cl)c4)nc(N4CCCC4C)n3)CC2)c(Cl)c1 (stereo not drawn) [Example 11, (5-Chloro-6-{4-[6-(3-chloro-4-fluoro-phenyl)-2-(2-methyl-pyrrolidin-1-yl)-pyrimidin-4-yl]-piperazin-1-yl}-pyridin-3-ylmethyl)-methyl-amine]
≤ 1000	CC1CCCN1c1nc(-c2ccc(F)c(Cl)c2)cc(N2CCN(c3ncc(CN)cc3Cl)CC2)n1 (stereo not drawn) [Example 12, C-(5-Chloro-6-{4-[6-(3-chloro-4-fluoro-phenyl)-2-(2-methyl-pyrrolidin-l-yl)-pyrimidin-4-yl]-piperazin-1-yl}-pyridin-3-yl)-methylamine]
≤ 1000	CC1CCCN1c1nc(-c2ccc(F)c(Cl)c2)cc(N2CCN(c3ncc(CO)cc3Cl)C[C@H]2C)n1 (stereo partly drawn) [Example 13, (5-Chloro-6-{4-[6-(3-chloro-4-fluoro-phenyl)-2-(2-methyl-pyrrolidin-1-yl)-pyrimidin-4-yl]-3-(R)-methyl-piperazin-1-yl}-pyridin-3-yl)-methanol]
≤ 1000	CCCN1CCN(c2nc(-c3ccc(F)c(Cl)c3)cc(N3CCN(c4ncc([N+](=O)[O-])cc4C)CC3)n2)CC1 [Example 14, 4-(3-Chloro-4-fluoro-phenyl)-6-[4-(3-methyl-5-nitro-pyridin-2-yl)-piperazin-l-yl]-2-(4-propyl-piperazin-1-yl)-pyrimidine]
≤ 1000	CC1CCCN1c1nc(-c2ccc(F)c(Cl)c2)cc(N2CCN(c3ncc(C(N)=O)cc3Cl)CC2)n1 (stereo not drawn) [Example 15, 5-Chloro-6-{4-[6-(3-chloro-4-fluoro-phenyl)-2-(2-methyl-pyrrolidin-1-yl)-pyrimidin-4-yl]-piperazin-l-yl}-nicotinamide]
≤ 1000	CCCN1CCN(c2nc(-c3ccc(F)c(Cl)c3)cc(N3CCN(c4ncc(CO)cc4Cl)CC3)n2)CC1 [Example 16, (5-Chloro-6-{4-[6-(3-chloro-4-fluoro-phenyl)-2-(4-propyl-piperazin-1-yl)-pyrimidin-4-yl]-piperazin-1-yl}-pyridin-3-yl)-methanol]
≤ 1000	CCCN1CCN(c2nc(-c3ccc(F)c(Cl)c3)cc(N3CCN(c4ncc(C(=O)O)cc4Cl)CC3)n2)CC1 [Example 17, 5-Chloro-6-{4-[6-(3-chloro-4-fluoro-phenyl)-2-(4-propyl-piperazin-1-yl)-pyrimidin-4-yl]-piperazin-1-yl}-nicotinic acid]
